The text below walks through data of patent US20240208997A1, “CYCLIC BENZIMIDAZOLE DERIVATIVES AS CGAS INHIBITORS” (Boehringer Ingelheim International GmbH, priority 2022, published 2024).

In general, IC50 refers to the concentration that inhibits the measured activity by half.

Assay [1] deals with IFN induction in cGAMP-stimulated THP1 cells. Nature of the assay: cGAMP stimulated counter cell assay in THP1-Dual cells (THP1(cGAMP) IC50). The conditions noted are these: Table 1; for IC50: Homo sapiens, THP-1, counter assay, 10 μM cGAMP stimulation, read-out: THP(cGAMP) IC50; for Ratio THP(cGAMP) IC50/THP(vir) IC50: selectivity for cGAS-inhibition. Type of assay: cell-based, human. An excerpt: 6.2 Method: Human cGAS Cell Assay and cGAMP Stimulated Counter Cell Assay (THP1(vir) IC50 and THP1(cGAMP) IC50)
For the counter assay, cells were stimulated by cGAMP (SigmaAldrich #SML1232) to activate the identical pathway independent and directly downstream of cGAS (measurement of THP1(cGAMP) IC50).
Pathway activity was monitored by measuring the Lucia luciferase activity induced by either DNA stimulated cGAS enzyme activity (measurement of THP1(vir) IC50) or by cGAMP directly (measurement of THP1(cGAMP) IC50, counter assay).
Compounds were delivered in 10 mM DMSO solution, serially diluted and transferred to the 384 well assay plate (Greiner #781201) using an Echo acoustic dispenser. Typically, 8 concentrations were used with the highest concentration at 10 μM in the final assay volume followed by ^˜1:5 dilution steps. DMSO concentration was set to 1% in the final assay volume. The 384 well assay plate contained […] (column 1-22), and DMSO in column 23 and 24.
Cells, cultivated according to manufacturer conditions, were harvested by centrifugation at 300 g/10 min and were then resuspended and diluted to 1.66E5 cells/ml in fresh cell culture medium (RPMI 1640 (Gibco #A10491-01), 10% FCS (Gibco #10500), 1× GlutaMax (Gibco #35050-061), 1× Pen/Strep solution (Gibco #15140-122), 100 μg/ml Normocin (InvivoGen #ant-nr), 100 μg/ml Zeocin (InvivoGen #ant-zn), 10 μg/ml Blasticidin S (Life Technologies #A11139-03)). The baculovirus solution was then added 1:200 (have varied according to virus batch) to the cells (measurement of THP1(vir) IC50).
30 μL of the cell/virus-mix were added to each well of the compound plate from column 1-23 via MultiDrop Combi dispenser (5000 cells/well). In column 24, 30 μl/5000 cells/well without virus were added as a low control.
The plates were then incubated for 18 h at 37° C. in a humidified incubator.
Following that, 15 μL of QuantiLuc detection reagent (InvivoGen #rep-qlcg5) were added to each well using a MultiDrop Combi. Measurement was done immediately after the addition using an EnVision reader (US-luminescence read-mode).
(§1) Data Evaluation and Calculation:
For data evaluation and calculation, the measurement of the low control was set as 0% control and the measurement of the high control was set as 100% control. The IC50 values were calculated using the standard 4 parameter logistic regression formula. Calculation: [y=(a−d)/(1+(x/c)^b)+d], a=low value, d=high value; x=conc M; c=IC50 M; b=slope

The target in a further assay is cGAS (Homo sapiens, UniProt Q8N884). Briefly: Human cGAS enzyme assay (hcGAS IC50, in vitro), cGAMP formation by RapidFire MS. The assay is classed as biochemical. The conditions noted are these: Table 1; 45 bp dsDNA-activated enzyme. Also noted: HumancGAS (amino acid 1-522) with an N-terminal 6×-His-tag and SUMO-tag; 6xHis (N); SUMO (N); made in house; host or cells: E. coli BL21(DE3) pLysS. On the procedure: 6.1 Method: Human cGAS Enzyme Assay (hcGAS IC50 (In Vitro))
Chain of cGAS (Q8N884 whole entry): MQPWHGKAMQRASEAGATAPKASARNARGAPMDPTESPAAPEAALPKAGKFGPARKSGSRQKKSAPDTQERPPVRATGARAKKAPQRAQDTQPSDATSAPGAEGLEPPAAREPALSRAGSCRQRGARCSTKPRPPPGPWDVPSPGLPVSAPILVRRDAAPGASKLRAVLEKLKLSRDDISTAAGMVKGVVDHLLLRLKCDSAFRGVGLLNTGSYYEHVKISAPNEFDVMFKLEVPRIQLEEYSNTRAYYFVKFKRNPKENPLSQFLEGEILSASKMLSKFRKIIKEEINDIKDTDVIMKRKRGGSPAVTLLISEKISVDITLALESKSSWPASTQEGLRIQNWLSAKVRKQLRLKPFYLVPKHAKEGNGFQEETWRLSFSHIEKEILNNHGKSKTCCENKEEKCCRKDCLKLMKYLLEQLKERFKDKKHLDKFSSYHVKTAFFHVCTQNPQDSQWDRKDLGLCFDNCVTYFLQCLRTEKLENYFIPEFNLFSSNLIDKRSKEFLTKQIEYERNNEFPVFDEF
Human cGAS enzyme was incubated in the presence of a 45 base pair double stranded DNA to activate the enzyme and GTP and ATP as substrates. Compound activity was determined by measuring the effect of compounds on the formation of the product of the enzyme reaction, cGAMP, which is measured by a mass spectrometry method.
HumancGAS (amino acid 1-522) with an N-terminal 6×-His-tag and SUMO-tag was expressed in E. coli BL21(DE3) pLysS (Novagen) cells for 16 h at 18° C. Cells were lysed in buffer containing 25 mM Tris (pH 8), 300 mM NaCl, 10 mM imidazole, 10% glycerol, protease inhibitor cocktail (cOmplete™, EDTA-free, Roche) and DNase (5 μg/mL). […] Purified protein was concentrated to 1.7 mg/mL and stored at −80° C.
Compounds were delivered in 10 mM DMSO solution, serially diluted and transferred to the 384 well assay plate (Greiner #781201) using an Echo acoustic dispenser. Typically, 8 concentrations were used with the highest concentration at 10 μM in the final assay volume followed by ^˜1:5 dilution steps. DMSO concentration was set to 1% in the final assay volume. The 384 well assay plate contained 22 test compounds (column 1-22), and DMSO in column 23 and 24.
After the compound transfer, 15 μL of the enzyme-DNA-working solution (12 nM cGAS, 0.32 μM 45base pair DNA in assay buffer, 10 mM Tris pH 7.5/10 mM KCl/5 mM MgCl2/1 mM DTT) were added to each well from column 1-23 via a MultiDrop Combi dispenser. In column 24, 15 μl of assay buffer without enzyme/DNA were added as a low control.
The plates were then pre-incubated for 60 min at room temperature.
Following that, 10 μL of GTP (ThermoFisher #R0461)-ATP (Promega #V915B) mix in assay buffer were added to the assay plate (columns 1-24, 30 μM final concentration each) using a Multidrop Combi.
The plates were incubated again for 90 min at room temperature.
Following the incubation, the reaction was stopped by 80 μL of 0,1% formic acid in assay buffer containing 5 nM cyclic-di-GMP (Sigma #SML1228) used as internal standard for the mass spectrometry. The total volume/well was 105 μL.
The plates were centrifuged at 4000 rpm, 4° C., for 5 min.
The RapidFire autosampler was coupled to a binary pump (Agilent 1290) and a Triple Quad 6500 (ABSciex, Toronto, Canada). […] Aspiration time: 250 ms; Load time: 3000 ms; Elute time: 3000 ms; Wash volume: 500 μL.
The MS was operated in positive ion mode with HESI ion source, with a source temperature of 550 C, curtain gas=35, gas 1=65, and gas 2=80. Unit mass resolution in SRM mode. The following transitions and MS parameters (DP: declustering potential and CE: collision energy) for cGAMP and DicGMP were determined:
Internal standard: cyclic-di-GMP at 690.1/540, DP=130, CE=30.
The formation of cGAMP was monitored and evaluated as ratio to cyclic-di-GMP.
as §1
For data evaluation and calculation, the measurement of the low control was set as 0% control and the measurement of the high control was set as 100% control. The IC50 values were calculated using the standard 4 parameter logistic regression formula. Calculation: [y=(a−d)/(1+(x/c)^b)+d], a=low value, d=high value; x=conc M; c=1C50 M; b=slope

On to `C[C@H]1CCCCC(=O)N2CCC(CC2)n2c(nc3ccccc32)O[C@H]2C[C@@H](C(=O)O)N(C2)c2nc1nc1c2oc2ccccc21` [Example 1.25], for which, in assay [1], the IC50 was over 10000 nM and the “Ratio THP(cGAMP) IC50/THP(vir) IC50” value was over 1251. This compound returned an IC50 against cGAS of 5.5 nM.
The like results for `C[C@H]1CN2CC[C@@H]1n1c(nc3ccccc31)O[C@H]1C[C@@H](C(=O)O)N(C1)c1nc(nc3c1oc1ccccc13)C(F)(F)COCCCCC2=O` [Example 3.01] were, in that order, 14000 nM, 32066 and 2.1 nM.
`C[C@@H]1CCCCC(=O)N2CCC(CC2)n2c(nc3ccccc32)O[C@H]2C[C@@H](C(=O)O)N(C2)c2nc1nc1c2oc2ccccc21` [Example 1.26]: the IC50 stood at 15000 nM in assay [1] and 3.4 nM on cGAS. The “Ratio THP(cGAMP) IC50/THP(vir) IC50” value in assay [1] amounted to 2687.
For `C[C@H]1CN2CC[C@@H]1n1c(nc3ccccc31)O[C@H]1C[C@@H](C(=O)O)N(C1)c1nc(nc3c1oc1ccccc13)CCCCCN(C)C2=O` [Example 13.01] the same measures were 7300 nM, 34 nM and 15.
For `O=C(O)[C@@H]1C[C@H]2CN1c1nc(nc3c1oc1ccccc13)CCOCCCC(=O)N1CCC(CC1)n1c(nc3ccc(F)cc31)O2` [Example 1.04], in assay [1], the IC50 was over 10000 nM and the “Ratio THP(cGAMP) IC50/THP(vir) IC50” value is reported as over 229. The same compound displayed an IC50 on cGAS of 4.5 nM.
As to `C[C@H]1CN2CC[C@@H]1n1c(nc3ccc(Cl)cc31)O[C@H]1C[C@@H](C(=O)O)N(C1)c1nc(nc3c1oc1ccccc13)CCOCCCC2=O` [Example 1.06], in assay [1], the half-inhibitory concentration (IC50) was over 10000 nM and the “Ratio THP(cGAMP) IC50/THP(vir) IC50” value is over 2417. This compound also had an IC50 at cGAS of 3.2 nM.
With `C[C@H]1CN2CC[C@@H]1n1c(nc3ccc(Cl)cc31)O[C@H]1C[C@@H](C(=O)O)N(C1)c1nc(nc3c1oc1ccccc13)COCCCCC2=O` [Example 1.10], in assay [1], the IC50 was over 10000 nM and the “Ratio THP(cGAMP) IC50/THP(vir) IC50” value is over 790. Besides, the midpoint of inhibition on cGAS, the IC50, lay at 5 nM.
Take `C[C@H]1CN2CC[C@@H]1n1c(nc3ccccc31)O[C@H]1C[C@@H](C(=O)O)N(C1)c1nc(nc3c1oc1ccccc13)CCOCCCC2=O` [Example 1.05]: the values for the half-inhibitory concentration (IC50) (in assay [1]; against cGAS) were over 10000 nM and 1.8 nM, respectively. In addition, in assay [1], the “Ratio THP(cGAMP) IC50/THP(vir) IC50” value is given as over 3448.
The like results for `C[C@H]1CN2CC[C@@H]1n1c(nc3cc(Cl)ccc31)O[C@H]1C[C@@H](C(=O)O)N(C1)c1nc(nc3c1oc1ccccc13)CCOCCCC2=O` [Example 1.02] were, in that order, over 10000 nM, 2.8 nM and over 3557.
The like results for `C[C@H]1CN2CC[C@@H]1n1c(nc3cc(Cl)ccc31)O[C@H]1C[C@@H](C(=O)O)N(C1)c1nc(nc3c1oc1ccccc13)C(F)(F)CCCOCC2=O` [Example 1.21] were, in that order, over 10000 nM, 3.3 nM and over 5238.
With `C[C@H]1CN2CC[C@@H]1n1c(nc3ccccc31)O[C@H]1C[C@@H](C(=O)O)N(C1)c1nc(nc3c1oc1cc(Cl)ccc13)C(F)(F)CCCCCC2=O` [Example 1.16], in assay [1], the IC50 came to 11000 nM and the “Ratio THP(cGAMP) IC50/THP(vir) IC50” value is 1134. For the same compound, at cGAS, the IC50 was 3.3 nM.
For the compound `C[C@H]1CN2CC[C@@H]1n1c(nc3cccc(Cl)c31)O[C@H]1C[C@@H](C(=O)O)N(C1)c1nc(nc3c1oc1ccccc13)CC(=O)NCCCC2=O` (racemic) [Example 2.01, (12S,14S)-4-chloro-37-methyl-29,34-dioxo-11,18-dioxa-2,9,15,26,30,35,40-heptaazaoctacyclo[33.2.2.1^12,15.1^16,27.0^2,10.0^3,8.0^17,25.0^19,24]hentetraconta-3,5,7,9,16(40),17(25),19(24),20,22,26-decaene-14-carboxylic acid], in assay [1], the IC50 was over 10000 nM and the “Ratio THP(cGAMP) IC50/THP(vir) IC50” value is over 948. For the same compound, half-maximal inhibition against cGAS (IC50) was put at 6 nM.
